Tests used:
Experiment in all cases: relative viability (nuclei count vs DMSO), 5 days (fraction); higher = more cells survive
BMX-IN-1 + Tozasertib = compound: C=CC(=O)Nc1cc(-n2c(=O)ccc3cnc4ccc(-c5ccc(NS(C)(=O)=O)cc5)cc4c32)ccc1C [BMX-IN-1] + Cc1cc(Nc2cc(N3CCN(C)CC3)nc(Sc3ccc(NC(=O)C4CC4)cc3)n2)n[nH]1 [Tozasertib] (partner 0.1 µM)
Summary of the method: (§1)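 Dosing by pin tool came one day after lung cancer cell lines were seeded in 1536-well plates, using either one drug or a fixed anchor-drug dose plus five library-drug doses (not always all listed) in √10 steps. After 5 days, nuclei were counted on 4× images. Relative viability is treated-well nuclei count divided by vehicle-well nuclei count, and values are medians of duplicate plates.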

BMX-IN-1 + Bortezomib = compound: C=CC(=O)Nc1cc(-n2c(=O)ccc3cnc4ccc(-c5ccc(NS(C)(=O)=O)cc5)cc4c32)ccc1C [BMX-IN-1] + CC(C)C[C@H](NC(=O)[C@H](Cc1ccccc1)NC(=O)c1cnccn1)B(O)O [Bortezomib] (partner 0.002 µM)
Summary of the method: as §1

PAC-1 + Navitoclax = compound: C=CCc1cccc(/C=N/NC(=O)CN2CCN(Cc3ccccc3)CC2)c1O [PAC-1] + CC1(C)CCC(c2ccc(Cl)cc2)=C(CN2CCN(c3ccc(C(=O)NS(=O)(=O)c4ccc(N[C@H](CCN5CCOCC5)CSc5ccccc5)c(S(=O)(=O)C(F)(F)F)c4)cc3)CC2)C1 [Navitoclax] (partner 0.5 µM)
Summary of the method: as §1

PAC-1 + Pemetrexed = compound: C=CCc1cccc(/C=N/NC(=O)CN2CCN(Cc3ccccc3)CC2)c1O [PAC-1] + Nc1nc2[nH]cc(CCc3ccc(C(=O)N[C@@H](CCC(=O)O)C(=O)O)cc3)c2c(=O)[nH]1 [Pemetrexed] (partner 0.2 µM)
Summary of the method: as §1

PAC-1 + Decitabine = compound: C=CCc1cccc(/C=N/NC(=O)CN2CCN(Cc3ccccc3)CC2)c1O [PAC-1] + Nc1ncn([C@H]2C[C@H](O)[C@@H](CO)O2)c(=O)n1 [Decitabine] (partner 2 µM)
Summary of the method: as §1

Cell Line | relative viability (BMX-IN-1 + Tozasertib; first compound 0.02 µM) | relative viability (BMX-IN-1 + Tozasertib; first compound 0.2 µM) | relative viability (BMX-IN-1 + Tozasertib; first compound 0.6325 µM) | relative viability (BMX-IN-1 + Tozasertib; first compound 2 µM) | relative viability (BMX-IN-1 + Bortezomib; first compound 0.02 µM) | relative viability (BMX-IN-1 + Bortezomib; first compound 0.2 µM) | relative viability (BMX-IN-1 + Bortezomib; first compound 0.6325 µM) | relative viability (BMX-IN-1 + Bortezomib; first compound 2 µM) | relative viability (PAC-1 + Navitoclax; first compound 0.02 µM) | relative viability (PAC-1 + Navitoclax; first compound 0.06325 µM) | relative viability (PAC-1 + Navitoclax; first compound 0.2 µM) | relative viability (PAC-1 + Navitoclax; first compound 2 µM) | relative viability (PAC-1 + Pemetrexed; first compound 0.02 µM) | relative viability (PAC-1 + Pemetrexed; first compound 0.06325 µM) | relative viability (PAC-1 + Pemetrexed; first compound 0.2 µM) | relative viability (PAC-1 + Pemetrexed; first compound 2 µM) | relative viability (PAC-1 + Decitabine; first compound 0.02 µM) | relative viability (PAC-1 + Decitabine; first compound 0.06325 µM) | relative viability (PAC-1 + Decitabine; first compound 0.2 µM) | relative viability (PAC-1 + Decitabine; first compound 2 µM)
NCI-H1623 | 0.494 | 0.465 | 0.447 | 0.394 |  |  |  |  |  |  |  |  |  |  |  |  |  |  |  | 
HOP-62 | 0.431 | 0.413 | 0.388 | 0.373 | 0.934 | 0.851 | 0.769 | 0.6 | 1.04 | 1.02 | 0.58 | 0.988 | 0.356 | 0.267 | 0.312 | 0.34 | 0.255 | 0.213 | 0.177 | 0.236
NCI-H727 | 0.691 | 0.646 | 0.572 | 0.597 | 1 | 0.869 | 1.05 | 0.939 | 0.425 | 0.452 | 0.352 | 0.42 |  |  |  |  | 0.982 | 0.809 | 0.772 | 0.98
ChaGo-K-1 | 0.216 | 0.227 | 0.218 | 0.237 | 1.08 | 1.1 | 1.31 | 1.17 | 1.2 | 1.08 | 1.21 | 1.08 | 0.256 | 0.252 | 0.258 | 0.265 | 0.522 | 0.506 | 0.458 | 0.54
BEN | 0.58 | 0.498 | 0.52 | 0.507 | 0.808 | 0.95 | 0.7 | 0.772 | 0.0891 | 0.0706 | 0.0845 | 0.0674 | 0.719 | 0.74 | 0.718 | 0.655 | 0.644 | 0.72 | 0.613 | 0.642
NCI-H596 | 1.07 | 0.932 | 0.819 | 0.959 | 0.9 | 1.28 | 1.31 | 0.988 | 0.887 | 0.932 | 0.951 | 0.951 | 0.435 | 0.471 | 0.477 | 0.54 | 0.915 | 1 | 0.93 | 0.942
LU99A | 0.275 | 0.294 | 0.275 | 0.293 | 1.2 | 1.18 | 1.2 | 1.12 | 0.939 | 0.836 | 0.717 | 0.801 | 0.192 | 0.162 | 0.182 | 0.177 | 0.826 | 0.773 | 0.801 | 0.881
NCI-H460 | 0.525 | 0.796 | 0.531 | 0.569 | 1.94 |  | 1.29 | 1.03 | 1.1 | 1.14 | 0.922 | 1.09 | 0.0683 | 0.0604 | 0.0685 | 0.0667 | 0.436 | 0.424 | 0.242 | 0.451
NCI-H1648 | 0.447 | 0.47 | 0.426 | 0.459 |  |  |  |  |  |  |  |  | 0.676 | 0.838 | 0.81 | 0.646 | 0.415 | 0.577 | 0.452 | 0.551
HCC-44 | 1.27 | 0.92 | 0.861 | 0.725 | 0.902 | 1.06 | 1.07 | 0.957 | 1.01 | 0.977 | 0.978 | 1.01 | 0.649 | 0.615 | 0.588 | 0.684 | 1.03 | 0.914 | 0.855 | 0.933
NCI-H647 | 0.283 | 0.0553 | 0.394 | 0.232 | 1.15 | 1.42 | 1.24 | 1.01 | 1.23 | 1.09 | 1.16 | 1.2 | 0.176 | 0.207 | 0.163 | 0.168 | 0.358 | 0.403 | 0.328 | 0.321
Calu-6 |  |  |  |  | 1.03 | 1.09 | 1.31 | 1.07 | 0.817 | 0.861 | 0.878 | 0.855 |  |  |  |  |  |  |  | 
201T | 1.17 | 0.997 | 0.953 | 0.896 | 1.13 | 1.07 | 1.12 | 1.1 | 1.21 | 1.23 | 1.21 | 1.16 | 0.316 | 0.303 | 0.314 | 0.334 | 0.854 | 0.85 | 0.836 | 0.861
CAL-12T | 0.345 | 0.375 | 0.344 | 0.297 | 0.92 | 0.785 | 1.17 | 0.949 | 1.43 | 1.21 | 1.31 | 1.26 | 1.22 | 1.23 | 1.15 | 1.16 |  |  |  | 
HCC-78 | 0.472 | 0.474 | 0.52 | 0.36 | 0.534 | 0.474 | 0.432 | 0.546 | 0.719 | 0.748 | 0.699 | 0.646 | 0.915 | 0.904 | 0.85 | 0.928 | 0.749 | 0.639 | 0.529 | 0.649
LK-2 | 0.223 | 0.173 | 0.161 | 0.184 |  |  |  |  | 0.816 | 0.805 | 0.88 | 0.845 | 0.238 | 0.244 | 0.246 | 0.321 | 0.328 | 0.284 | 0.264 | 0.335
NCI-H522 | 0.573 | 0.666 | 0.605 | 0.532 |  |  |  |  |  |  |  |  | 0.945 | 0.902 | 1.08 | 0.955 | 0.607 | 0.641 | 0.614 | 0.697
NCI-H322M | 0.514 | 0.548 | 0.475 | 0.401 | 1.33 | 1.25 | 1.2 | 1.36 | 1.23 | 1.27 | 1.28 | 1.23 | 0.591 | 0.65 | 0.618 | 0.603 | 0.691 | 0.711 | 0.689 | 0.751
